Reference: patent publication US11896713B2, “Strategies to enhance lung cancer treatment” (Rutgers, The State University of New Jersey, priority 2020, dated 2024)
“Also recorded” adds a separate entry of the source. Residues, ends and D or L forms follow the SMILES beside them.

Assays:
[1] = test system: human lung cancer cells; assay: Orthotopic lung cancer model treated with liposomal cisplatin or carboplatin; type: in vivo, mice; conditions: intravenous, 2.5 mg/kg
Description: Orthotopic lung cancer mouse model was created by intratracheal instillation of human lung cancer cells. The progression of tumor growth was monitored using bioluminescent and magnetic resonance (MRI) imaging. Luciferase transfected cancer cells were visualized in live anesthetized animals using in-vivo bioluminescence IVIS system (Xenogen, Alameda, CA). Luciferin (150 mg/kg) was intraperitoneally administered 10-15 minutes before imaging. All imaging procedures were performed at special imaging facilities of the Rutgers University Molecular Imaging Center as previously described. Mice were anesthetized with isoflurane (4% for induction of anesthesia and 1-2% for maintenance) using XGI-8 Gas Anesthesia System (Xenogen, Alameda, CA) for all imaging procedures. MRI was performed using a 1 T M2™ whole body scanner (Aspect Imaging, Shoham, Israel). Images (repetition time 2607 ms, echo time 44 ms) were recorded in Fast Spin Echo sequence. At a spatial resolution of 312 μm, the tumors were coronal imaged in a single section through the mouse body using an image matrix of 256×256, a field of view of 80 mm^2, and 4 excitation. Magnetic resonance signal and tumor volume were calculated using VivoQuant 1.21 software (Invicro, Boston, MA).
In order to deliver liposome-based system by inhalation, a Collison nebulizer (BGI, Inc., Waltham, MA) was connected to four-port nose-only exposure chambers (the chamber was made by CH Technologies, Westwood, NJ according to our design). […] The installation was designed and regime of inhalation was selected to keep the inhalation dosage controllable and uniform from animal to animal with a minimal damage to the nanoparticles. The solution of NLC was aerosolized at a flow rate of 2 L/min and then diluted by an additional 2 L/min of air. […] It was also shown that the aerosol distribution between the four ports of the chamber was homogenous. The dose of Cis and Carb in all drug-containing formulations was 2.5 mg/kg for the single administration.

[2] = test system: LHRH-positive lung cancer cells; assay: Cytotoxicity (MTT) and competitive inhibition by LHRH peptide; type: cell-based
Description: (§1) Cytotoxicity, Apoptosis Induction and Immune Response. The toxicities of the developed formulations were compared with a commercially used EGFR inhibitor gefitinib in three types of human lung cancer cells with different resistance to the drug. […] Cytotoxicity and apoptosis induction were analyzed by a modified 3-(4,5-Dimethylthiazol-2-yl)-2,5-diphenyltetrazolium bromide (MTT) assay and cell death detection ELISA Plus kit (Roche, Nutley, NJ), respectively. The cells were seeded on a 96 well plate at 10,000 cells per well with 100 μl of growth media in each well and placed in the incubator for 24 hours. After 24 hours, the media was removed and the cells were treated with varying concentrations of above indicated substances. The concentrations of tested substances were prepared using a serial dilution (1:2) to make 12 different working solutions for the cytotoxicity measurement.

[3] = test system: A549 lung cancer cells; assay: Orthotopic lung cancer model, tumor volume; type: in vivo, mice; conditions: intravenous, TAX 2.5 mg/kg
Description: In Vivo Lung Cancer Model, Imaging and Treatment. All animal experiments were carried out according to the protocol approved by Institutional Animal Care and Use Committee (IACUC). Nude mice were purchased from the approved commercial vendor (Taconic, Germantown, NY). All aspects of the program for procurement, conditioning/quarantine, housing management, veterinary care and disposal of carcasses followed the guidelines set forth in the NIH Guide for the Care and Use of Laboratory Animals. Animals were housed in the […]—accredited animal facility with free access to food and water. Veterinary care was supplied by Rutgers University Lab Animal Services. Orthotopic lung cancer mouse model was created by intratracheal instillation of A549 lung cancer cells as previously described. The progression of tumor growth was monitored using bioluminescent and magnetic resonance (MRI) imaging. Luciferase transfected cancer cells were visualized in live anesthetized animals using in-vivo bioluminescence IVIS system (Xenogen, Alameda, CA). Luciferin (150 mg/kg) was intraperitoneally administered 10-15 minutes before imaging. […] Images (repetition time 2607 ms, echo time 44 ms) were recorded in Fast Spin Echo sequence. […] Magnetic resonance signal and tumor volume were calculated using VivoQuant 1.21 software (Invicro, Boston, MA). […]

[4] = test system: NCI-H3255 cells; assay: Cytotoxicity (MTT); type: cell-based, human; conditions: 72 h, 1 μM
Description: as §1

[5] = test system: NCI-H1781 cells; assay: Cytotoxicity (MTT); type: cell-based, human; conditions: 72 h, 1 μM
Description: as §1

[6] = test system: A549 cells; assay: Cytotoxicity (MTT); type: cell-based, human; conditions: 72 h, 1 μM
[7] = test system: NCI-H1781, A549 and NCI-H3255 NSCLC cell lines; assay: Apoptosis induction (cell death detection ELISA); type: cell-based, human; conditions: 72 h; 1 μM gefitinib or 0.3 ng/ml nanocarrier
Description: as §1
The control cells were incubated with fresh media. Previously validated in our laboratory MTT and apoptosis induction measurement protocols were used.

For `N.N.O=C([O-])C1(C(=O)[O-])CCC1.[Pt+2]` [Carb, carboplatin], the antitumor effect [1] was “slightly slowed the tumor progression; also recorded: somewhat higher antitumor activity”.
In the case of `CCNC(=O)[C@@H]1CCCN1C(=O)[C@H](CCCNC(=N)N)NC(=O)[C@H](CC(C)C)NC(=O)[C@@H](CCCCNC(=O)[C@H](N)CS)NC(=O)[C@H](Cc1ccc(O)cc1)NC(=O)[C@H](CO)NC(=O)[C@H](Cc1c[nH]c2ccccc12)NC(=O)[C@H](Cc1c[nH]cn1)NC(=O)[C@@H](N)CCC(N)=O` [LHRH peptide, Gln-His-Trp-Ser-Tyr-DLys(D-Cys)-Leu-Arg-Pro] (HELM PEPTIDE1{Q.H.W.S.Y.[dK].L.R.P.[CCN[*:1]]}|PEPTIDE2{[dC]}$PEPTIDE1,PEPTIDE2,6:R3-1:R2$$$V2.0), the cytotoxicity [2] is reported as “did not demonstrate any toxicity” and the “effect of LHRH receptor ligand on cytotoxicity of LHRH-NLC-TAX” value ([2]; cells incubated with different concentrations of LHRH peptide) is reported as “limited cytotoxicity of LHRH-NLC-TAX in a concentration-dependent manner”.
`CC(=O)O[C@H]1C(=O)[C@@]2(C)[C@H]([C@H](OC(=O)c3ccccc3)[C@]3(O)C[C@H](OC(=O)[C@H](O)[C@@H](NC(=O)c4ccccc4)c4ccccc4)C(C)=C1C3(C)C)[C@]1(OC(C)=O)CO[C@@H]1C[C@@H]2O` [TAX, Paclitaxel] was tested, and the “decrease of lung tumor volume at the end of the experiment” value [3] was 1.1 times.
With `COc1cc2ncnc(Nc3ccc(F)c(Cl)c3)c2cc1OCCCN1CCOCC1` [gefitinib] the sensitivity to gefitinib [4] was “the most sensitive to gefitinib”, the sensitivity to gefitinib [5] was “most resistant to gefitinib” and the sensitivity to gefitinib [6] was “moderate sensitivity to gefitinib”. For the same molecule, the apoptosis induction [7] was “correlated with its cytotoxicity”.
`N.N.[Cl][Pt][Cl]` [Cis, cisplatin] was tested, and the antitumor effect [1] was “slightly slowed the tumor progression”.
